Laboratory results from patent US7078195B2, “Antibiotics AA-896” (Wyeth Holdings Corporation, priority 2001, dated 2006).
In brackets after ≈: the same amount, converted by molar mass.

How the values were obtained:
S. aureus GC 4536 = assay: Broth dilution MIC; assay type: cell-based; details: 18 hours at 35° C.; for Antimicrobial Activity (MIC): Mueller-Hinton broth; for MIC: Staphylococcus aureus, GC4536, Mueller-Hinton broth, read-out: Antimicrobial Activity (MIC)
In short: (§1)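 MIC taken as the lowest compound concentration preventing visible bacterial growth after 18 hours at 35° C, by standard broth dilution in Mueller-Hinton broth.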

E. coli GC 4559 = assay: Broth dilution MIC; assay type: cell-based; details: 18 hours at 35° C.; for Antimicrobial Activity (MIC): Mueller-Hinton broth; for MIC: Escherichia coli, GC4559, Mueller-Hinton broth, read-out: Antimicrobial Activity (MIC)
In short: as §1

E. faecalis GC 2242 = assay: Broth dilution MIC; assay type: cell-based; details: 18 hours at 35° C.; for MIC: Enterococcus faecalis, GC2242, Mueller-Hinton broth, read-out: Antimicrobial Activity (MIC)
In short: as §1

S. aureus GC 2216 = assay: Broth dilution MIC; assay type: cell-based; details: 18 hours at 35° C.; for Antimicrobial Activity (MIC): Mueller-Hinton broth; for MIC: Staphylococcus aureus, GC2216, Mueller-Hinton broth, read-out: Antimicrobial Activity (MIC)
In short: as §1

E. cloacae GC 3783 = assay: Broth dilution MIC; assay type: cell-based; details: 18 hours at 35° C.; for Antimicrobial Activity (MIC): Mueller-Hinton broth; for MIC: Enterobacter cloacae, GC3783, Mueller-Hinton broth, read-out: Antimicrobial Activity (MIC)
In short: as §1

E. coli GC 3226 = assay: Broth dilution MIC; assay type: cell-based; details: 18 hours at 35° C.; for Antimicrobial Activity (MIC): Mueller-Hinton broth; for MIC: Escherichia coli, GC3226, Mueller-Hinton broth, read-out: Antimicrobial Activity (MIC)
In short: as §1

K. pneumoniae GC 4534 = assay: Broth dilution MIC; assay type: cell-based; details: 18 hours at 35° C.; for Antimicrobial Activity (MIC): Mueller-Hinton broth; for MIC: Klebsiella pneumoniae, GC4534, Mueller-Hinton broth, read-out: Antimicrobial Activity (MIC)
In short: as §1

CNS GC 4537 = assay: Broth dilution MIC; assay type: cell-based; details: Mueller-Hinton broth, 18 hours at 35° C.; for MIC: read-out: Antimicrobial Activity (MIC)
In short: as §1

E. faecalis GC 4555 = assay: Broth dilution MIC; assay type: cell-based; details: 18 hours at 35° C.; for Antimicrobial Activity (MIC): Mueller-Hinton broth; for MIC: Enterococcus faecalis, GC4555, Mueller-Hinton broth, read-out: Antimicrobial Activity (MIC)
In short: as §1

S. aureus GC 1131 = assay: Broth dilution MIC; assay type: cell-based; details: 18 hours at 35° C.; for Antimicrobial Activity (MIC): Mueller-Hinton broth; for MIC: Staphylococcus aureus, GC1131, Mueller-Hinton broth, read-out: Antimicrobial Activity (MIC)
In short: as §1

S. marcescens GC 4077 = assay: Broth dilution MIC; assay type: cell-based; details: 18 hours at 35° C.; for Antimicrobial Activity (MIC): Mueller-Hinton broth; for MIC: Serratia marcescens, GC4077, Mueller-Hinton broth, read-out: Antimicrobial Activity (MIC)
In short: as §1

CNS GC 4547 = assay: Broth dilution MIC; assay type: cell-based; details: Mueller-Hinton broth, 18 hours at 35° C.; for MIC: read-out: Antimicrobial Activity (MIC)
In short: as §1

P. rettgeri GC 4530 = assay: Broth dilution MIC; assay type: cell-based; details: 18 hours at 35° C.; for Antimicrobial Activity (MIC): Mueller-Hinton broth; for MIC: Providencia rettgeri, GC4530, Mueller-Hinton broth, read-out: Antimicrobial Activity (MIC)
In short: as §1

P. aeruginosa GC 2214 = assay: Broth dilution MIC; assay type: cell-based; details: 18 hours at 35° C.; for Antimicrobial Activity (MIC): Mueller-Hinton broth; for MIC: Pseudomonas aeruginosa, GC2214, Mueller-Hinton broth, read-out: Antimicrobial Activity (MIC)
In short: as §1

CNS GC 4538 = assay: Broth dilution MIC; assay type: cell-based; details: Mueller-Hinton broth, 18 hours at 35° C.; for MIC: read-out: Antimicrobial Activity (MIC)
In short: as §1

M. morganii GC 4531 = assay: Broth dilution MIC; assay type: cell-based; details: 18 hours at 35° C.; for Antimicrobial Activity (MIC): Mueller-Hinton broth; for MIC: Morganella morganii, GC4531, Mueller-Hinton broth, read-out: Antimicrobial Activity (MIC)
In short: as §1

P. aeruginosa GC 4532 = assay: Broth dilution MIC; assay type: cell-based; details: 18 hours at 35° C.; for Antimicrobial Activity (MIC): Mueller-Hinton broth; for MIC: Pseudomonas aeruginosa, GC4532, Mueller-Hinton broth, read-out: Antimicrobial Activity (MIC)
In short: as §1

E. faecalis GC 842 = assay: Broth dilution MIC; assay type: cell-based; details: 18 hours at 35° C.; for Antimicrobial Activity (MIC): Mueller-Hinton broth; for MIC: Enterococcus faecalis, GC842, Mueller-Hinton broth, read-out: Antimicrobial Activity (MIC)
In short: as §1

E. coli GC 2203 = assay: Broth dilution MIC; assay type: cell-based; details: 18 hours at 35° C.; for Antimicrobial Activity (MIC): Mueller-Hinton broth; for MIC: Escherichia coli, GC2203, Mueller-Hinton broth, read-out: Antimicrobial Activity (MIC)
In short: as §1

E. coli GC 4560 = assay: Broth dilution MIC; assay type: cell-based; details: 18 hours at 35° C.; for Antimicrobial Activity (MIC): Mueller-Hinton broth; for MIC: Escherichia coli, GC4560, Mueller-Hinton broth, read-out: Antimicrobial Activity (MIC)
In short: as §1

E. faecalis GC 242 = assay: Broth dilution MIC; assay type: cell-based; details: Mueller-Hinton broth, 18 hours at 35° C.
In short: as §1

Streptococcus pneumoniae = assay: Acute lethal infection in mice; assay type: in vivo
Protocol: (§2) The antibacterial efficacy of AA-896-A1 in vivo against acute lethal infection in mice is established by infecting mice with Staphylococcus aureus Smith or Streptococcus pneumoniae. The mice are treated with AA-896-A1.

[1] = tested on: Staphylococcus aureus Smith; assay: Acute lethal infection in mice; assay type: in vivo
Protocol: as §2

CC(C)C(NC(=O)NC(C(=O)NC(C(=O)NCCCNC(C(=O)O)C(OC1CC(O)C(CN)O1)C1OC(n2ccc(=O)[nH]c2=O)C(O)C1O)C(O)C(C)C)C1CCNC(=N)N1)C(=O)O [AA-896-C3, 5-O-[5-Amino-2,5-dideoxy-β-D-ribofuranosyl]-6-[[3-[2-[2-[[(1-carboxy-2-methylpropyl)-carbamoyl]amino]-2-(hexahydro-2-iminopyrimidin-4-yl)acetamido]-3-hydroxy-4-methyl-pentanamido]propyl]amino]-1,6-dideoxy-1-(3,4-dihydro-2,4-dioxopyrimidin-1(2H)-yl)-β-D-heptofuranuronic acid]
Antimicrobial Activity (MIC) (S. aureus GC 4536): >32 µg/mL | Antimicrobial Activity (MIC) (E. coli GC 4559): 32 µg/mL | Antimicrobial Activity (MIC) (E. faecalis GC 2242; Mueller-Hinton broth): >32 µg/mL | Antimicrobial Activity (MIC) (S. aureus GC 2216): >32 µg/mL | Antimicrobial Activity (MIC) (E. cloacae GC 3783): 8 µg/mL | Antimicrobial Activity (MIC) (E. coli GC 3226): 32 µg/mL | Antimicrobial Activity (MIC) (K. pneumoniae GC 4534): >32 µg/mL | Antimicrobial Activity (MIC) (CNS GC 4537): >32 µg/mL | Antimicrobial Activity (MIC) (E. faecalis GC 4555): >32 µg/mL | Antimicrobial Activity (MIC) (S. aureus GC 1131): >32 µg/mL | Antimicrobial Activity (MIC) (S. marcescens GC 4077): >32 µg/mL | Antimicrobial Activity (MIC) (CNS GC 4547): >32 µg/mL | Antimicrobial Activity (MIC) (P. rettgeri GC 4530): >32 µg/mL | Antimicrobial Activity (MIC) (P. aeruginosa GC 2214): 16 µg/mL | Antimicrobial Activity (MIC) (CNS GC 4538): >32 µg/mL | Antimicrobial Activity (MIC) (M. morganii GC 4531): >32 µg/mL | Antimicrobial Activity (MIC) (P. aeruginosa GC 4532): 32 µg/mL | Antimicrobial Activity (MIC) (E. faecalis GC 842): >32 µg/mL | Antimicrobial Activity (MIC) (E. coli GC 2203): 16 µg/mL | Antimicrobial Activity (MIC) (E. coli GC 4560): 0.5 µg/mL

5-O-[5-Amino-5-deoxy-2-O-methyl-β-D-ribofuranosyl]-6-[[3-[3-[[13-(carbamimidoylhydroxy-amino)tridecanoyl]oxy]-2-[2-[[(1-carboxy-2-methylpropyl)carbamoyl]amino]-2-(hexahydro-2-iminopyrimidin-4-yl)acetamido]-4-methylpentanamido]propyl]amino]-1,6-dideoxy-1-(3,4-dihydro-2,4-dioxopyrimidin-1(2H)-yl)-β-D-heptofuranuronic acid [AA-896-A1]
Antimicrobial Activity (MIC) (S. aureus GC 4536): 4 µg/mL | Antimicrobial Activity (MIC) (E. coli GC 4559): 32 µg/mL | Antimicrobial Activity (MIC) (S. aureus GC 2216): 8 µg/mL | Antimicrobial Activity (MIC) (E. cloacae GC 3783): 0.5 µg/mL | Antimicrobial Activity (MIC) (E. coli GC 3226): 8 µg/mL | Antimicrobial Activity (MIC) (K. pneumoniae GC 4534): >32 µg/mL | Antimicrobial Activity (MIC) (CNS GC 4537): 2 µg/mL | Antimicrobial Activity (MIC) (E. faecalis GC 4555): 16 µg/mL | Antimicrobial Activity (MIC) (E. faecalis GC 242): 32 µg/mL | Antimicrobial Activity (MIC) (S. aureus GC 1131): 4 µg/mL | Antimicrobial Activity (MIC) (S. marcescens GC 4077): >32 µg/mL | Antimicrobial Activity (MIC) (CNS GC 4547): 4 µg/mL | Antimicrobial Activity (MIC) (P. rettgeri GC 4530): >32 µg/mL | Antimicrobial Activity (MIC) (P. aeruginosa GC 2214): 16 µg/mL | Antimicrobial Activity (MIC) (CNS GC 4538): 1 µg/mL | Antimicrobial Activity (MIC) (M. morganii GC 4531): >32 µg/mL | Antimicrobial Activity (MIC) (P. aeruginosa GC 4532): 32 µg/mL | Antimicrobial Activity (MIC) (E. faecalis GC 842): 32 µg/mL | Antimicrobial Activity (MIC) (E. coli GC 2203): 16 µg/mL | Antimicrobial Activity (MIC) (E. coli GC 4560): <=0.03 μg/ml | ED50 range (95% confidence limit) (Streptococcus pneumoniae): 8.0 to 16.0 mg/kg | ED50 range (95% confidence limit) [1]: 0.83 to 1.46 mg/kg

CC(C)C(NC(=O)NC(C(=O)NC(C(=O)NCCCNC(C(=O)O)C(O)C1OC(n2ccc(=O)[nH]c2=O)C(O)C1O)C(OC(=O)CCCCCCCCCCCCN(O)C(=N)N)C(C)C)C1CCNC(=N)N1)C(=O)O [AA-896-A5, 6-[[3-[3-[[13-(Carbamimidoylhydroxyamino)tridecanoyl]oxy]-2-[2-[[(1-carboxy-2-methyl-propyl)carbamoyl]amino]-2-(hexahydro-2-iminopyrimidin-4-yl)acetamido]-4-methyl-pentanamido]propyl]amino]-1,6-dideoxy-1-(3,4-dihydro-2,4-dioxopyrimidin-1(2H)-yl)-β-D-heptofuranuronic acid]
MIC (S. aureus GC 4536): 8 µg/mL (≈ 7.48 µM) | MIC (E. coli GC 4559): 4 µg/mL (≈ 3.74 µM) | MIC (E. faecalis GC 2242): > 64 µg/mL | MIC (S. aureus GC 2216): 16 µg/mL (≈ 15 µM) | MIC (E. cloacae GC 3783): 1 µg/mL (≈ 0.934 µM) | MIC (E. coli GC 3226): 16 µg/mL (≈ 15 µM) | MIC (K. pneumoniae GC 4534): 8 µg/mL (≈ 7.48 µM) | MIC (CNS GC 4537): 16 µg/mL (≈ 15 µM) | MIC (E. faecalis GC 4555): 32 µg/mL (≈ 29.9 µM) | MIC (S. aureus GC 1131): 16 µg/mL (≈ 15 µM) | MIC (S. marcescens GC 4077): > 64 µg/mL | MIC (CNS GC 4547): 16 µg/mL (≈ 15 µM) | MIC (P. rettgeri GC 4530): > 64 µg/mL | MIC (P. aeruginosa GC 2214): 32 µg/mL (≈ 29.9 µM) | MIC (CNS GC 4538): 4 µg/mL (≈ 3.74 µM) | MIC (M. morganii GC 4531): > 64 µg/mL | MIC (P. aeruginosa GC 4532): 32 µg/mL (≈ 29.9 µM) | MIC (E. faecalis GC 842): > 64 µg/mL | MIC (E. coli GC 2203): 16 µg/mL (≈ 15 µM) | MIC (E. coli GC 4560): ≤ 0.06 µg/mL

CC(C)C(NC(=O)NC(C(=O)NC(C(=O)NCCCNC(C(=O)O)C(O)C1OC(n2ccc(=O)[nH]c2=O)C(O)C1O)C(O)C(C)C)C1CCNC(=N)N1)C(=O)O [AA-896-C4, 6-[[3-[2-[2-[[(1-Carboxy-2-methylpropyl)carbamoyl]amino]-2-(hexahydro-2-iminopyrimidin-4-yl)acetamido]-3-hydroxy-4-methylpentanamido]propyl]amino]-1,6-dideoxy-1-(3,4-dihydro-2,4-dioxopyrimidin-1(2H)-yl)-β-D-heptofuranuronic acid]
MIC (S. aureus GC 4536): > 32 µg/mL | MIC (E. coli GC 4559): > 32 µg/mL | MIC (E. faecalis GC 2242): > 32 µg/mL | MIC (S. aureus GC 2216): > 32 µg/mL | MIC (E. cloacae GC 3783): > 32 µg/mL | MIC (E. coli GC 3226): > 32 µg/mL | MIC (K. pneumoniae GC 4534): > 32 µg/mL | MIC (CNS GC 4537): > 32 µg/mL | MIC (E. faecalis GC 4555): > 32 µg/mL | MIC (S. aureus GC 1131): > 32 µg/mL | MIC (S. marcescens GC 4077): > 32 µg/mL | MIC (CNS GC 4547): > 32 µg/mL | MIC (P. rettgeri GC 4530): > 32 µg/mL | MIC (P. aeruginosa GC 2214): 32 µg/mL (≈ 40 µM) | MIC (CNS GC 4538): > 32 µg/mL | MIC (M. morganii GC 4531): > 32 µg/mL | MIC (P. aeruginosa GC 4532): 32 µg/mL (≈ 40 µM) | MIC (E. faecalis GC 842): > 32 µg/mL | MIC (E. coli GC 2203): > 32 µg/mL | MIC (E. coli GC 4560): 4 µg/mL (≈ 4.99 µM)
